Measured values reported in patent US7781421B2, “Neuroactive 13, 24-cyclo-18, 21-dinorcholanes and structurally related pentacyclic steriods” (Washington University, priority 2003, dated 2010).

Key:
Xenopus laevis tadpoles = assay: Tadpole loss of righting (LRR) and swimming (LSR) reflexes; format: in vivo; details: 3 h equilibration at room temperature; for EC50: Xenopus laevis, 3 h, read-out: LSR EC50 (loss of swimming response)
Experimental: Tadpole LRR was measured as described previously. (See, Wittmer, L. L., et al., Enantioselectivity of steroid-induced γ-aminobutyric acidA receptor modulation and anesthesia, Mol. Phar., 1996, 50:1581-1586). Briefly, groups of 10 early prelimb-bud stage Xenopus laevis tadpoles (Nasco, Fort Atkinson, Wis.) were placed in 100 mL of oxygenated Ringer's stock solution containing various concentrations of compound. Compounds were added from a 10 mM DMSO stock (final concentration of DMSO in test solutions ≦0.1%). After equilibrating at room temperature for 3 h, tadpoles were evaluated using the LRR and LSR behavioral endpoints. LRR was defined as failure of the tadpole to right itself within 5 sec after being flipped by a smooth glass rod. LSR was defined as failure of the tadpole to swim when touched by a smooth glass rod. In general, the tadpoles regained their righting and swimming reflexes when placed in fresh oxygenated Ringer's solution. Control beakers containing up to 0.6% DMSO produced no LRR or LSR in tadpoles.
Tadpole LRR and LSR concentration-response curves were fit using Sigma Plot version 3.0 to the Hill equation f=Rmax/{1+([conc]/EC50)^n}
where Rmax is the maximum effect, [conc] is the steroid concentration, EC50 is the half-maximal effective concentration, and n is the Hill coefficient.

[1] = target: GABAA receptor ([35S]-TBPS binding site, rat brain cortical membranes); assay: Displacement of [35S]-TBPS binding, rat brain cortical membranes; details: 5 μM GABA, 2 nM [35S]-TBPS; ± standard error of the means
Experimental: Rat brain cortical membranes were prepared with minor modifications of the method previously reported. (Hawkinson, J. E., et al., Correlation of Neuroactive Steroid Modulation of [^35S]t-Butylbicyclophosophorothionate and [^3H]Flunitrazepam Binding and γ-Aminobutyric AcidA Receptor Function, Mol. Pharmacol., 1994, 46, 977-985). Briefly, frozen rat cerebral cortices (Pel-freez, Rogers, Ak.) were thawed and homogenized in 10 volumes of ice-cold 0.32 M sucrose using a glass/Teflon pestle. The homogenate was centrifuged at 1500×g for 10 min at 4° C. The resultant supernatant was centrifuged at 10,000×g for 30 min at 4° C. The pellet (P2) from this centrifugation was resuspended in 200 mM NaCl, 50 mM potassium phosphate buffer, pH 7.4, and centrifuged at 10,000×g for 20 min at 4° C. This washing procedure was done a total of three times, and then pellets were resuspended in buffer (˜4 mL/brain) using a glass/Teflon pestle. The membrane suspension was aliquoted, frozen in liquid nitrogen, and stored at −80° C. prior to use.
[^35S]-TBPS Binding assays were done according to the procedure described previously (Hawkinson, J. E., et al., Correlation of Neuroactive Steroid Modulation of [^35S]t-Butylbicyclophosophorothionate and [^3H]Flunitrazepam Binding and γ-Aminobutyric AcidA Receptor Function, Mol. Pharmacol., 1994, 46, 977-985) with modifications. Briefly, aliquots of membrane solution (0.5 mg/mL final protein concentration in assay) were incubated with 5 μM GABA, 2 nM [^35S]-TBPS (45-120 Ci/mmol), and 5 μL aliquots of steroid in DMSO solution (final assay concentrations ranged from 1 nM to 10 μM), and brought to a final volume of 1 mL with 200 mM NaCl, 50 mM potassium phosphate buffer, pH 7.4. […] Assay tubes were incubated for 2 hr at room temperature. A Brandel (Gaithersburg, Md.) cell harvester was used for filtration of the assay tubes through Whatman/GF/C glass filter paper. Filter paper was rinsed with 4 mL of ice-cold buffer three times. Radioactivity bound to the filters was read by liquid scintillation counter and data was fit using Sigma Plot version 3.0 to the Hill equation i. f=Rmax/{1+([conc]/IC50)^n}
Where Rmax is the maximal effect, [conc] is steroid concentration, IC50 is the half-maximal inhibitor concentration and n is the Hill coefficient. Each data point was determined in triplicate and 2-3 full concentration-response curves were generated for each steroid.

[2] = target: T1, rat α1β2γ2 GABAA Receptor (Rattus norvegicus, UniProt P18508+P62813+P63138, INS375LLRMFSFK); assay: Xenopus oocyte two-electrode voltage-clamp electrophysiology; format: cell-based; details: for Oocyte electrophysiology, ratio of currents in presence/absence of compound, 10 μM: 10 μM compound co-applied with 2 μM GABA; for Oocyte electrophysiology, ratio of currents in presence/absence of compound, 10 μM / Oocyte electrophysiology, ratio of currents in presence/absence of compound, 0.1 μM / Oocyte electrophysiology, ratio of currents in presence/absence of compound, 1 μM: −70 mV; for Oocyte electrophysiology, ratio of currents in presence/absence of compound, 0.1 μM: 0.1 μM compound co-applied with 2 μM GABA; for Oocyte electrophysiology, ratio of currents in presence/absence of compound, 1 μM: 1 μM compound co-applied with 2 μM GABA; for Gating (10 μM), ratio of compound only current/2 μM GABA current: direct current gated by 10 μM compound in the absence of GABA
T1 construct: from linearized pBluescript vectors containing receptor coding regions; expressed in transfected cells; host or cells: Xenopus laevis oocytes injected with in vitro transcribed capped mRNA
T1 sequence (P62813 28-455, stated change not applied): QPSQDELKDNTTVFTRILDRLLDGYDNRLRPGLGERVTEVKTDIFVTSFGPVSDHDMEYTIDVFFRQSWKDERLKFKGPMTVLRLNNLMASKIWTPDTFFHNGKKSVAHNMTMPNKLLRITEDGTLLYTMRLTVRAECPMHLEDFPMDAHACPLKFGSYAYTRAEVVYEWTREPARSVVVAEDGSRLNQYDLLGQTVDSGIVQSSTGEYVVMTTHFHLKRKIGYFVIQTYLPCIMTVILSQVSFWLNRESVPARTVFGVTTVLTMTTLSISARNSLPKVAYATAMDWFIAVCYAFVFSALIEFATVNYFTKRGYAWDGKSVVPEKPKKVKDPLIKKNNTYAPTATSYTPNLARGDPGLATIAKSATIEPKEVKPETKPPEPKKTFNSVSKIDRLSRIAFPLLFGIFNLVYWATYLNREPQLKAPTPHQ
T1 sequence (P63138 26-474, stated change not applied): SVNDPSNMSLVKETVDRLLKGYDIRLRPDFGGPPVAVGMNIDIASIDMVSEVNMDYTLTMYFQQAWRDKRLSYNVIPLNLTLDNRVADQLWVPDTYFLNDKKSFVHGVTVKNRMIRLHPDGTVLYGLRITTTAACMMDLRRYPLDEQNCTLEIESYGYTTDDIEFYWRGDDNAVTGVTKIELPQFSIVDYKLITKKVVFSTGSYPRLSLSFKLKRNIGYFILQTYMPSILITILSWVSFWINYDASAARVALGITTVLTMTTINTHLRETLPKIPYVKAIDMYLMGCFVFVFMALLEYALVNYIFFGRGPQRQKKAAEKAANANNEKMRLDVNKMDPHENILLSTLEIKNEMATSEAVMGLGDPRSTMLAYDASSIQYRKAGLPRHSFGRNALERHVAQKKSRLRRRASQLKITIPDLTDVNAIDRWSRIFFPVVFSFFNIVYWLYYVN
T1 sequence (P18508 with tags, fused parts or gaps INS375LLRMFSFK): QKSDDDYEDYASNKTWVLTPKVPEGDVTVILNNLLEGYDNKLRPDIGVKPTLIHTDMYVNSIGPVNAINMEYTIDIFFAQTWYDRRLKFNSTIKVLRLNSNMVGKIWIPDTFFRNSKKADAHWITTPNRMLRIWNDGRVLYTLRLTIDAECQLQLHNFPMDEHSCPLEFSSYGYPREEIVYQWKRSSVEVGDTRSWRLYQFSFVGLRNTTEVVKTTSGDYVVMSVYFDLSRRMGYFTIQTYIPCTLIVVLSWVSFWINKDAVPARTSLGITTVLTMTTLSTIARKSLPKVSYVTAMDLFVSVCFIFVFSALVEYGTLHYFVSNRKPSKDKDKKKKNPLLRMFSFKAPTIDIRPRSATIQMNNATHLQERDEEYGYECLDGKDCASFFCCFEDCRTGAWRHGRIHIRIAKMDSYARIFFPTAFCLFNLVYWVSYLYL
Experimental: Stage V-VI oocytes were harvested from sexually mature female Xenopus laevis (Xenopus One, Northland, Mich.) under 0.1% tricaine (3-aminobenzoic acid ethyl ester) anesthesia. Oocytes were defolliculated by shaking for 20 min at 37° C. in collagenase (2 mg/ml) dissolved in calcium-free solution containing (in mM): 96 NaCl, 2 KCl, 1 MgCl2, and 5 HEPES at pH 7.4. Capped mRNA, encoding rat GABAA receptor α1, β2 and γ2L subunits was transcribed in vitro using the mMESSAGE mMachine Kit (Ambion, Austin, Tex.) from linearized pBluescript vectors containing receptor coding regions. Subunit transcripts were injected in equal parts (20-40 ng total RNA) 8-24 hours following defolliculation. Oocytes were incubated up to 5 days at 18° C. in ND96 medium containing (in mM): 96 NaCl, 1 KCl, 1 MgCl2, 2 CaCl2 and 5 HEPES at pH 7.4, supplemented with pyruvate (5 mM), penicillin (100 U/ml), streptomycin (100 μg/ml) and gentamycin (50 μg/ml). The cDNAs for the rat GABAA-receptor subunits were originally provided by A. Tobin, University of California, Los Angels (α1), P. Malherbe, Hoffman-La Roche, Switzerland (β2), C. Fraser, National Institute on Alcohol Abuse and Alcoholism (γ2L).
Two-electrode voltage-clamp experiments were performed with a Warner OC725 amplifier 2-5 days following RNA injection. The extracellular recording solution was ND96 medium with no supplements. Intracellular recording pipettes were filled with 3 M KCl and had open tip resistances of ˜1 MΩ. Drugs were applied from a common tip via a gravity-driven multibarrel drug-delivery system. Steroids were simultaneously co-applied with GABA. Cells were clamped at −70 mV for all experiments, and peak current during 20 s drug applications was measured. Data acquisition and analysis were performed with pCLAMP software (Axon Instruments, California). Statistical differences were determined using a two-tailed Student's t-test.
The GABA concentration used for the control response was 2 μM. Each compound was evaluated on at least four different oocytes at the concentrations indicated, and the results reported are the ratio of the currents measured in the presence/absence of added compound. (G) represents direct current gated by 10 μM compound in the absence of GABA, and this current is reported as the ratio of compound only current/2 μM GABA current. Error limits are calculated as standard error of the means.

Row | SMILES | LRR ED50 (loss of righting response) (Xenopus laevis tadpoles) | EC50 (Xenopus laevis tadpoles) [nM] | IC50 [1] [nM] | melting point | Oocyte electrophysiology, ratio of currents in presence/absence of compound, 10 μM [2] | Oocyte electrophysiology, ratio of currents in presence/absence of compound, 0.1 μM [2] | Oocyte electrophysiology, ratio of currents in presence/absence of compound, 1 μM [2] | Gating (10 μM), ratio of compound only current/2 μM GABA current [2] | LSR EC50 (loss of swimming response) (Xenopus laevis tadpoles)
1 | C[C@]12CC[C@@H](O)C[C@@H]1CCC1C3CC[C@@H]4CC[C@@H](C#N)C[C@]34CCC12 (stereo partly drawn) [Compound 49, (3α,5α,20R)-3-Hydroxy-13,24-cyclo-18,21-dinorcholane-23-carbonitrile] | 350 ± 90 nM | > 10000 | 574 ± 26 | 182 to 183 °C | 1.3 ± 0.1 | – | – | – | –
2 | CC12CCC(O)CC1CCC1C2CCC23CCC(=O)C2CCC13 (stereo not drawn) [Compound 89, (3α,5α)-3-Hydroxy-18,21-cyclopregnan-20-one] | 2630 ± 70 nM | 5480 ± 150 | 204 ± 36 | 176 to 178.5 °C | 4.54 ± 0.64 | 0.81 ± 0.02 | 1.02 ± 0.07 | 0.01 ± 0.00 | –
3 | C[C@]12CC[C@@H](O)C[C@@H]1CCC1C3CC[C@@H]4C[C@H](C#N)CC[C@]34CCC12 (stereo partly drawn) [Compound 45, (3α,5α,22R)-3-Hydroxy-13,24-cyclo-18,21-dinorcholane-22-carbonitrile] | >10000 nM | – | 44300 ± 21300 | 244 to 246 °C | 0.87 ± 0.01 | 0.90 ± 0.02 | 0.82 ± 0.02 | −0.01 ± 0 | None @ 10
4 | CC12CCC(O)CC1CCC1C2CCC23CCCC(=CC#N)C2CCC13 (stereo not drawn) [Compound 64, (3α,5α,20Z)-3-Hydroxy-13,24-cyclo-18-norcholan-20-ene-21-carbonitrile] | 680 ± 150 nM | 10200 | 1080 | 201.5 to 203 °C | 1.74 ± 0.11 | 1.19 ± 0.04 | 1.27 ± 0.03 | 0.03 ± 0.04 | –
5 | CC12CCC(O)CC1CCC1C2CCC23CC4OC4C(=O)C2CCC13 [Compound 19a, (3α,5α,22S,23S)-22,23-Epoxy-3-hydroxy-13,24-cyclo-18,21-dinorcholan-20-one] | 1750 ± 460 nM | 10000 | 370 ± 42 | 238 to 240 °C | 8.90 ± 2.10 | 1.47 ± 0.17 | 1.92 ± 0.23 | 0.23 ± 0.24 | –
6 | CC12CCC(O)CC1CCC1C2CCC23CCC=CC2CCC13 (stereo not drawn) [Compound 13b, (3α,5β)-13,24-Cyclo-18,21-dinorchol-20(22)-en-3-ol] | 1280 ± 1800 nM | > 10000 | 484 ± 103 | 168 to 169 °C | 3.48 ± 1.01 | 1.44 ± 0.17 | 2.09 ± 0.35 | −0.05 ± 0.09 | –
7 | CC12CCC(O)CC1CCC1C2CCC23C(=O)CCCC2CCC13 (stereo not drawn) [Compound 5b, (3α,5β)-3-Hydroxy-13,24-cyclo-18,21-dinorcholan-24-one] | 400 ± 120 nM | 890 | 329 ± 35 | 177 to 178 °C | 10.42 ± 1.65 | 1.26 ± 0.05 | 3.45 ± 0.29 | 0.04 ± 0.02 | –
8 | C[C@]12CC[C@@H](O)C[C@@H]1CCC1C3CC[C@@H]4CCC=C[C@]34CCC12 (stereo partly drawn) [Compound 61, (3α,5α)-13,24-Cyclo-18,21-dinorchol-23-en-3-ol] | None @ 10 | – | 2000 ± 190 | 166.5 to 169 °C | 1.72 ± 0.26 | 1.28 ± 0.08 | 1.47 ± 0.10 | 0.19 ± 0.10 | None @ 10
9 | C[C@]12CC[C@@H](O)C[C@@H]1CCC1C3CC[C@@H]4[C@@]5(CCC[C@]34CCC12)CO5 (stereo partly drawn) [Compound 73, (3α,5α,20S)-20,21-Epoxy-13,24-cyclo-18-norcholan-3-ol] | 4000 ± 1080 nM | – | 1290 | 186 to 192 °C (dec.) | 4.84 ± 1.05 | 0.88 ± 0.05 | 2.54 ± 0.40 | −0.02 ± 0.04 | None @ 10
